Values quoted from earlier work in PMC9851200, “Multiparameter phenotypic screening for endogenous TFEB and TFE3 translocation identifies novel chemical series modulating lysosome function” (Autophagy, 2022).

Experiments:
Parameters in all cases: method as in original PKIS2 published data
[1] = biological target: kinases (KINOMEscan panel) (Homo sapiens, UniProt Q52WX2); conditions: SBK1; Published KINOMEscan; ref original PKIS2 published data; cited from earlier work
[2] = biological target: kinases (KINOMEscan panel) (Homo sapiens, UniProt Q9Y243); conditions: kinase AKT3; Published KINOMEscan; ref original PKIS2 published data; cited from earlier work
[3] = biological target: T1, kinases (KINOMEscan panel) (Homo sapiens, UniProt Q13976); conditions: kinase PRKG1; Published KINOMEscan; ref original PKIS2 published data; cited from earlier work
T1 sequence (Q13976 1-671): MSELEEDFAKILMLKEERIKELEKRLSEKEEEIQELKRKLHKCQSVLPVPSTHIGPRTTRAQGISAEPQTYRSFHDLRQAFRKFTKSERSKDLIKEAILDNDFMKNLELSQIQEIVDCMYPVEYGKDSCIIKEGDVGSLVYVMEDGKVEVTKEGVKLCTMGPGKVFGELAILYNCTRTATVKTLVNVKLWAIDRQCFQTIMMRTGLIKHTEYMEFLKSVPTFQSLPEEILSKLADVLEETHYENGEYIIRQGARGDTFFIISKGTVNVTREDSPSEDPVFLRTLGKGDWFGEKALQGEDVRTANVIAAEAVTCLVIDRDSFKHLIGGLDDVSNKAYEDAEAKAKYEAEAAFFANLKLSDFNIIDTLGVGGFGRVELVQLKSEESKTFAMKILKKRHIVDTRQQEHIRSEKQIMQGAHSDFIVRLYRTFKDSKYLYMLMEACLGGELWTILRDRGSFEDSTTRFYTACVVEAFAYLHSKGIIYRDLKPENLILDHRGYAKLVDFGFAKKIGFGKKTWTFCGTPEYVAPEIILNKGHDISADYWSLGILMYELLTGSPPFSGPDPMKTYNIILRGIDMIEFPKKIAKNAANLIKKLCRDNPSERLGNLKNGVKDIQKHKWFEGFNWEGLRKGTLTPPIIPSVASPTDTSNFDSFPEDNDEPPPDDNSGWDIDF

[4] = biological target: kinases (KINOMEscan panel) (Homo sapiens, UniProt Q14012); conditions: CAMK1; Published KINOMEscan; ref original PKIS2 published data; cited from earlier work
[5] = biological target: T2, kinases (KINOMEscan panel) (Homo sapiens, UniProt O43318); conditions: Published KINOMEscan; ref original PKIS2 published data; cited from earlier work
T2 sequence (O43318 1-606): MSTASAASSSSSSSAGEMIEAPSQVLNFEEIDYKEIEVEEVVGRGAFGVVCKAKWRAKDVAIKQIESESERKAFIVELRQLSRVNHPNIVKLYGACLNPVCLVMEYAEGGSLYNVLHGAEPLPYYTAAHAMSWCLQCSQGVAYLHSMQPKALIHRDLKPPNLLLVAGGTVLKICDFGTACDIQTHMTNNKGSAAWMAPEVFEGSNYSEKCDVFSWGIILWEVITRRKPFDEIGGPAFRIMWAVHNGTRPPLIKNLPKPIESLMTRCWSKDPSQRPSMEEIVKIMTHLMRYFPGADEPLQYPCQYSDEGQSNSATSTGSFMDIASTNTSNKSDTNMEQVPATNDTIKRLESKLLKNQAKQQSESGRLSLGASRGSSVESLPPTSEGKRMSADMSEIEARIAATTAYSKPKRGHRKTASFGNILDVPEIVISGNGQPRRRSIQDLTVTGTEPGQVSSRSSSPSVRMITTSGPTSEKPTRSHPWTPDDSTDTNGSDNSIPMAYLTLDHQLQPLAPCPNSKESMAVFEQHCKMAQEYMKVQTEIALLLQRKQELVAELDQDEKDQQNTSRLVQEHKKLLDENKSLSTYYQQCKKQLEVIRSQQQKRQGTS

[6] = biological target: kinases (KINOMEscan panel) (Homo sapiens, UniProt P53671); conditions: LIMK2; Published KINOMEscan; ref original PKIS2 published data; cited from earlier work
[7] = biological target: T3, kinases (KINOMEscan panel) (Homo sapiens, UniProt Q8IWQ3); conditions: kinase BRSK2; Published KINOMEscan; ref original PKIS2 published data; cited from earlier work
T3 sequence (Q8IWQ3 1-736): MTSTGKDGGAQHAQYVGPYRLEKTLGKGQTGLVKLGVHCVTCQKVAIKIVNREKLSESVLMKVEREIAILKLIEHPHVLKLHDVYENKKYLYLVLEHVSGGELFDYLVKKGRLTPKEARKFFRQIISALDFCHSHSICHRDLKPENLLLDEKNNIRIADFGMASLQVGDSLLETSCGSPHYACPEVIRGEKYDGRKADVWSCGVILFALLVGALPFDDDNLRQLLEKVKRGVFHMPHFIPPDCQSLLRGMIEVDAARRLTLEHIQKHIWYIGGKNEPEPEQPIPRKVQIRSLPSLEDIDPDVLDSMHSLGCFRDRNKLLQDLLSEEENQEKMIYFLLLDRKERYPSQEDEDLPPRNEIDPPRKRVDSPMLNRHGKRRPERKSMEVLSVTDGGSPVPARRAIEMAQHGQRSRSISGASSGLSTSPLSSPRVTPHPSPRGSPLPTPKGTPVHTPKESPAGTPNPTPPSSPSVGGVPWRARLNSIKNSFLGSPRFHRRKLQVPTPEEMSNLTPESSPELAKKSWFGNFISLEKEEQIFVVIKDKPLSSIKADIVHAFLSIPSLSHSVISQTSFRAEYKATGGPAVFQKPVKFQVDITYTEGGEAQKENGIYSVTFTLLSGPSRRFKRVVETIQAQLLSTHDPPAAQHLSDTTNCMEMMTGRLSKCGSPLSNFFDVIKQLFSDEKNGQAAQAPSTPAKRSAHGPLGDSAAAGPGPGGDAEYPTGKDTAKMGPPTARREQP

kinases (KINOMEscan panel) (Homo sapiens, UniProt Q14012), sequence (Q14012 whole entry): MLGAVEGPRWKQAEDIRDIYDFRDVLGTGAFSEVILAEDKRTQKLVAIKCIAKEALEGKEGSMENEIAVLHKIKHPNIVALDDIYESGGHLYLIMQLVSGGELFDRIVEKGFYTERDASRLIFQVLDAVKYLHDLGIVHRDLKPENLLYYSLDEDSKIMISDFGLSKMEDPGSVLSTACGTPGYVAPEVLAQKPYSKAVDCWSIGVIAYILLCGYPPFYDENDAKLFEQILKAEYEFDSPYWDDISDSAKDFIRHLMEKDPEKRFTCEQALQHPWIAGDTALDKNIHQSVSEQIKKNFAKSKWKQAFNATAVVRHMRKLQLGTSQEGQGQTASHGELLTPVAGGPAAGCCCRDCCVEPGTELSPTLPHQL
kinases (KINOMEscan panel) (Homo sapiens, UniProt Q9Y243), sequence (Q9Y243 whole entry): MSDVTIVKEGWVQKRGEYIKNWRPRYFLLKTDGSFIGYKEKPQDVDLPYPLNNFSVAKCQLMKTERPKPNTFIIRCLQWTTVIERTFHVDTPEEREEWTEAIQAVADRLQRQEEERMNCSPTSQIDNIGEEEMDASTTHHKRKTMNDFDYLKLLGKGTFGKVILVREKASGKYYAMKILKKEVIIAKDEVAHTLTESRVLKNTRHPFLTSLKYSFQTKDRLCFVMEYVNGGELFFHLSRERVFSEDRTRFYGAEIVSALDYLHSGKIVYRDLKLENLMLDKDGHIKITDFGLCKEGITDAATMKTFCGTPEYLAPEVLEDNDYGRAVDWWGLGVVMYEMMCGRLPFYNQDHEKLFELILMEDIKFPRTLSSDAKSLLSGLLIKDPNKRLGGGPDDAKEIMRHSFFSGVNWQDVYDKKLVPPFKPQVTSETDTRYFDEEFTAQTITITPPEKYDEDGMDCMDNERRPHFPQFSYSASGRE
kinases (KINOMEscan panel) (Homo sapiens, UniProt Q52WX2), sequence (Q52WX2 whole entry): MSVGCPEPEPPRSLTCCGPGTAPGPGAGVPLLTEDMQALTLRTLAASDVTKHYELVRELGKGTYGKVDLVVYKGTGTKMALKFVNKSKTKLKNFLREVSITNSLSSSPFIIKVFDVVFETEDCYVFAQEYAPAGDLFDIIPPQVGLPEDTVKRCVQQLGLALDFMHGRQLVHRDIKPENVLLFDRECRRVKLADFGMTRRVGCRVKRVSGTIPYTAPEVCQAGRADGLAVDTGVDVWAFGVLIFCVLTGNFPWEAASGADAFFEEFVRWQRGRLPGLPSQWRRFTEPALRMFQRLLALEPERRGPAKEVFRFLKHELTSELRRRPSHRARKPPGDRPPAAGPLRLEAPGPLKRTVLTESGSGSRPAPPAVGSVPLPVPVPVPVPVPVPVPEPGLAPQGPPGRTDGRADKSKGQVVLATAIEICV
kinases (KINOMEscan panel) (Homo sapiens, UniProt P53671), sequence (P53671 whole entry): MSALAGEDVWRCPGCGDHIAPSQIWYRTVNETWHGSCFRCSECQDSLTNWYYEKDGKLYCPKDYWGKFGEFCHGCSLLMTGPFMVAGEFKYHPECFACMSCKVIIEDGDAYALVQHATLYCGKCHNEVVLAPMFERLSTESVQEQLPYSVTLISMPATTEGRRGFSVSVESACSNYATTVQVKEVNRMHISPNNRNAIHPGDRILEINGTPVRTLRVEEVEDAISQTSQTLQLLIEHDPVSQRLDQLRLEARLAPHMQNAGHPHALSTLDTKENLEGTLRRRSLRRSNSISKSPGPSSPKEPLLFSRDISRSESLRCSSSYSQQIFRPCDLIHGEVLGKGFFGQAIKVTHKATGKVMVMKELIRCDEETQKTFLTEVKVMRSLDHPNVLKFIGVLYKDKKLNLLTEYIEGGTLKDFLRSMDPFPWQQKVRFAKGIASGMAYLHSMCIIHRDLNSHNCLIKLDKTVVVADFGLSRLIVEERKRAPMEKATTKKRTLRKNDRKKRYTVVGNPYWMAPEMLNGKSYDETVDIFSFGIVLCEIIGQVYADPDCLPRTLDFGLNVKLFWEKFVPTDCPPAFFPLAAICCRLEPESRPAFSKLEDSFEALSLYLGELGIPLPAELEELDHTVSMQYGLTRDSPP

For Cc1cccc(-c2nc(Nc3ccncc3)c3ccccc3n2)n1 [NK215], the “KINOMEscan SBK1” value [1] is listed as 0, the “KINOMEscan AKT3” value [2] is listed as 0 and the “KINOMEscan PRKG1” value [3] is listed as 7. For the same compound, the “KINOMEscan CAMK1” value [4] was 0, the “KINOMEscan MAP3K7” value [5] was 0 and the “KINOMEscan LIMK2” value [6] was 5. For the same compound, the “KINOMEscan BRSK2” value [7] was 11.
